Assay results taken from patent publication US20120288544A1, “NOVEL RETIGABINE COMPOSITION” (GLAXO GROUP LIMITED, priority 2010, published 2012).

Experiment: pH dependent solubility of retigabine
Conditions: around pH 2 (stomach) versus around pH 7 (lower intestine)

## CCOC(=O)Nc1ccc(NCc2ccc(F)cc2)cc1N [Retigabine]
  pH dependent solubility: more soluble in the acidic conditions of the stomach (around pH 2) than in the near neutral conditions of the lower intestine (around pH 7)
